Measured values taken from patent publication US12195456B1, “Single molecules having mixed CDK4, CDK6, PLK1 targeting properties” (priority 2019, dated 2025).
pIC50: −log10 of the molar value. Entries after “also recorded” stand apart in the source; their conditions may differ.

Legend:
[1] = system: SKBR3 HER2+ breast cancer cells; test: ALDH+ cancer stem cell numbers (ALDEFLUOR, flow cytometry), SKBR3; format: cell-based; settings: equimolar concentrations vs existing CDK4/6 inhibitors
[2] = system: SUM149 TNBC cells; test: In vitro growth inhibition (SRB), SUM149; format: cell-based
Protocol: (§1) In vitro growth inhibition assay: Growth inhibitory potency was evaluated using the SRB assay. Briefly, cells were plated in 96-well in triplicate and treated with drugs (0.0065 μM to 100 μM) 24 h after seeding. Following drug treatment, the cells were fixed using 50 μl of cold TCA (50%) for 1 h at 4° C., washed five times with tap water, and stained for 30 min at room temperature with SRB (0.4%) in acetic acid (0.5%). The plates were subsequently rinsed five times with acetic acid (1%) and allowed to air dry. The resulting purple residue was dissolved in Tris base (200 μl, 10 mM), and optical densities read on a ELx808 BioTek microplate reader. […] values were determined using the GraphPad Prism software.

[3] = system: SUM159 triple negative breast cancer cells; test: ALDH+ cancer stem cell numbers (ALDEFLUOR, flow cytometry), SUM159; format: cell-based, human; settings: TNBC (SUM159); equimolar concentrations vs existing CDK4/6 inhibitors
Protocol: Flow cytometry was used to measure the ALDH+ CSC numbers, as previously described^6,11-13. […] As a result, KP108 was further selected as the first lead compound.
ALDEFLUOR assay was performed as described in the manufacturer's protocol, 1×10^6 SUM159 cells were centrifuged and resuspended in 1 ml ALDH assay buffer. 5 μl substrate was added into the cell suspension. For negative control, 500 μl cell suspension were then transferred into a new tube containing 5 μl DEAB. Cells were then incubated for 40 min at 37° C. Percentage of ALDH+ cells were analyzed with Accuri C6 flow cytometer and Flowjo software.

[4] = system: prostate cancer cells; test: In cellulo testing, prostate cancer; format: cell-based
Protocol: (§2) Cell Culture: All the cell lines used were cultured at 37° C. in 5% CO2. HEK293T and MDA were maintained in Dulbecco's Modified Eagle Medium (DMEM) (Wisent Bio) with 10% fetal bovine serum (FBS) (Gibco). SUM159 was maintained in Ham's F-12 media with 5% FBS, 5 μg/mL insulin and 1 μg/mL hydrocortisone (Wisent Bio). HPAF-II was maintained in Eagle's Minimum Essential Medium (EMEM) (Wisent Bio) with 10% FBS. PC-3 was maintained in F-12K medium with 10% FBS.
as §1

[5] = target: CDK4/cyclin D3 (Homo sapiens, UniProt P11802); test: In vitro kinase assay, CDK4/cyclin D3; format: biochemical
Excerpt: (§3) In vitro kinase profiling: To assess on-target and off-target kinase affinity and specificity of our lead inhibitor KP108 in a full kinome profiling, we will test the lead compound against Reaction Biology Corporation four panels (Wild Type. Panel (374 kinases), Mutant Panel (232 kinases), Atypical Panel (20 kinases), Lipid Panel (17 lipid kinases). This was outsourced to Reaction Biology Corporation, a biopharmaceutical company focused on the development of kinase inhibitors (http://www.reactionbiology.com/webapps/site/).

[6] = system: Rb-positive SUM159 TNBC cells; test: Apoptosis assay (AnnexinV/PI), SUM159; format: cell-based, human
Protocol: (§4) Apoptosis assay: Apoptotic rates were analyzed and quantified by flow cytometry following AnnexinV/PI staining on SUM159 and MDA-MB-468 breast cancer cells.

[7] = target: CDK6/cyclin D3 (Homo sapiens, UniProt Q00534); test: In vitro kinase assay, CDK6/cyclin D3; format: biochemical
Excerpt: as §3

[8] = target: Polo-like Kinase-1 (PLK1) (Homo sapiens, UniProt P53350); test: Kinase profiling / inhibition of PLK1; format: biochemical; settings: panel of 50 kinases
Excerpt: (§5) As expected, at these high concentrations, the relative % of inhibition is saturated at nearly 100% for both CDK4 and CDK6. To validate CDK4/6 and PLK1 as functional KP108 targets, we then assessed CDK4-mediated Rb phosphorylation (Ser780) and PLK1-mediated autophosphorylation (Thr210) in vitro.
(§6) […] This was outsourced to Reaction Biology Corporation, a biopharmaceutical company focused on the development of kinase inhibitors (http://www.reactionbiology.com/webapps/site/).

[9] = system: PLK family members; test: Effects on PLK family members; format: biochemical
[10] = system: Rb-deficient MDA-MB-438 cell line; test: In vitro growth inhibition (SRB), Rb-deficient MDA-MB-438; format: cell-based
Protocol: as §1

[11] = system: PLK1-mediated autophosphorylation (Thr210); test: Immunoblotting of PLK1 autophosphorylation in TNBC cells; format: cell-based
Excerpt: as §5
(§7) As PLK1 is overexpressed in 80% of metastatic breast cancers and the fact that it acts by blocking the G2-M phase of the cell cycle, this provides an attractive added value for KP108, further expanding its potential tumor growth inhibitory capacity.
(§8) Western Blot After washing the infected cells with ice-cold PBS twice, 300 μL of ice-cold cell lysis buffer (1M Tris-HCl, 5M NaCl, 10% Triton, 100 mM EDTA, 100 mM Na3VO4, ×100 Protease Inhibitor, 10× Phosphatase Inhibitor) was added to the dish. All the adherent cells were scraped off the dish and the cell suspension were transferred to a microcentrifuge tube. The cell suspension was left to incubated on ice for 10 min and the cell lysate mixture was centrifuge at 12,000 RPM for 20 mins at 4° C. The supernatant was transferred to a new microcentrifuge tube on ice. The protein concentration was determined using the BCA Kit (ThermoFisher). The lysate samples were diluted in 5×SDS Buffer and were heated at 95° C. for 5 min. The ladder and the samples were loaded into the wells of a SDS PAGE gel and the gel was then run at 100V. […]

[12] = system: Rb-deficient MDA-MB-468 TNBC cells; test: Apoptosis assay (AnnexinV/PI), MDA-MB-468; format: cell-based
Protocol: as §4

[13] = system: CDK4-mediated Rb phosphorylation (Ser780); test: Immunoblotting of Rb phosphorylation in TNBC cells; format: cell-based
Excerpt: as §5, §7, §8

[14] = system: MDA-MB-468 Rb-deficient TNBC cells; test: Cell cycle progression, Rb-deficient TNBC cells; format: cell-based
[15] = system: pancreatic cancer cells; test: In cellulo testing, pancreatic cancer; format: cell-based
Protocol: as §2, §1

[16] = system: CSCs (tumorsphere formation); test: Tumorsphere assay; format: cell-based; settings: in vitro
Protocol: Tumorsphere assays: Monolayer cells were enzymatically dissociated into single cells with trypsin-EDTA. Cells were plated at 10,000 cells per well in a 24-well low-attachment plate (Coming). Cells were grown for 7 days in DMEM/F12 supplemented with B27 (Invitrogen) in the presence of 10 ng/ml EGF and 10 ng/ml bFGF. Tumorsphere-forming efficiency was calculated as the number of spheres divided by the number of singles cells seeded, expressed as a percentage.

[17] = system: cell lines representing different models of solid tumors (breast, prostate and pancreatic cancers); test: Growth inhibition in cell lines representing different solid tumors; format: cell-based; settings: all tumor types tested: breast
Protocol: as §1

[18] = system: MDA-MB-231 TNBC cells; test: In vitro growth inhibition (SRB), MDA-MB-231; format: cell-based
Protocol: as §1

[19] = system: panel of 50 different kinases; test: Kinase profiling against a panel of 50 kinases at 100 nM; format: biochemical; settings: 100 nM range, except PLK1
Excerpt: as §5, §6

[20] = system: SUM159 TNBC xenografts; test: Orthotopic SUM159 TNBC xenograft (mammary fat pad); format: in vivo, NSG mice
Protocol: We further assessed our compound on breast cancer tumorigenesis in vivo, through orthotopic transplantation of SUM159 TNBC cells into the mammary fat pad of NSG mice. […] Drugs were administered through i.p. daily injections for two weeks (50 mg/kg) and tumor volumes were measured, as per our team optimized protocol^10,19.
In vivo studies: All mice were housed and handled in accordance to the approved guidelines of the Canadian Council on Animal Care (CCAC) “Guide to the Care and Use of Experimental Animals” and under the conditions and procedures approved by the Animal Care Committee of McGill University (AUP #7497). The NSG mouse breeders were purchased from Jackson Laboratory (California, US). Female and male NSG mice between 7 and 9 weeks of age were bred and maintained in the animal facility of the Research Institute of the McGill University Health Center, as per the guidelines of the McGill University Animal Care Committee.
Xenograft model: Human breast cancer cells, SUM159 (1×10^6/mouse) were diluted in 1:1 with Matrigel and then inoculated in 8-week old, female NSG mice by mammary fat pad route to generate breast cancer tumor. Tumor sizes were measured with a digital electronic caliper three times per week to reach maximum volume of 1000 mm3 prior to euthanasia. Tumor volumes were calculated according to the following formula: [4/3×π×(Length/2)×(Width/2)2] to generate a growth curve.

[21] = system: SUM159 lung metastasis; test: Preclinical lung metastasis model (tail vein injection of TNBC cells); format: in vivo; settings: NSG mice, daily I.P. 50 mg/kg for 2 weeks
Protocol: To then functionally assess our lead in a preclinical model of tumor metastasis, immune-deficient non-obese diabetic scid gamma (NSG) mice were injected intravenously with 10^6 TNBC cells. […] Lungs were collected and stained with Bouin's solution and, the numbers of lung metastatic nodules were quantified. In vivo studies: All mice were housed and handled in accordance to the approved guidelines of the Canadian Council on Animal Care (CCAC) “Guide to the Care and Use of Experimental Animals” and under the conditions and procedures approved by the Animal Care Committee of McGill University (AUP #7497). The NSG mouse breeders were purchased from Jackson Laboratory (California, US). Female and male NSG mice between 7 and 9 weeks of age were bred and maintained in the animal facility of the Research Institute of the McGill University Health Center, as per the guidelines of the McGill University Animal Care Committee. Intravenous injection model: cells (1×106/each) were injected by tail vein route to develop lung metastases. The mice were euthanized with a maximum of 42-day (SUM159) post cancer cells injection. The lung tissues were counted for metastases nodules post Bouin's solution fixation.

[22] = system: SUM159 Rb-positive TNBC cells; test: Cell cycle progression, Rb-positive TNBC cells; format: cell-based, human

Sequence of CDK4/cyclin D3 (P11802 whole entry): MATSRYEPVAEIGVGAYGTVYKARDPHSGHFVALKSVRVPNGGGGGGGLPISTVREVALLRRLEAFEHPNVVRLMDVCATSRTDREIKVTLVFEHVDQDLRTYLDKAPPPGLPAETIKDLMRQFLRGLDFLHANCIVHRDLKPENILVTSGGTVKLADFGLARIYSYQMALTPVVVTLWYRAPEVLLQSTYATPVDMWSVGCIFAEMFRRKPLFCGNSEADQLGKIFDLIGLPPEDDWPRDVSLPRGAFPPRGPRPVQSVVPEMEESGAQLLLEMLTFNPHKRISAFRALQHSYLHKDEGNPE
Sequence of CDK4/cyclin D3 (P30281 whole entry partner): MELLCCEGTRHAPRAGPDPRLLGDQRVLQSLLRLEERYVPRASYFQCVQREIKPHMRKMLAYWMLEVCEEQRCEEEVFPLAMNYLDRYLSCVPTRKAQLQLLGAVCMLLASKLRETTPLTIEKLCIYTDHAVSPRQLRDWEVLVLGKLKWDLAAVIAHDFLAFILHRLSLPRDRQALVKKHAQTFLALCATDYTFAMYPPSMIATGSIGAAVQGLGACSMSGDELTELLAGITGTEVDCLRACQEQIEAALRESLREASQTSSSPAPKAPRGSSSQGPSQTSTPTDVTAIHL
Sequence of Polo-like Kinase-1 (PLK1) (P53350 whole entry): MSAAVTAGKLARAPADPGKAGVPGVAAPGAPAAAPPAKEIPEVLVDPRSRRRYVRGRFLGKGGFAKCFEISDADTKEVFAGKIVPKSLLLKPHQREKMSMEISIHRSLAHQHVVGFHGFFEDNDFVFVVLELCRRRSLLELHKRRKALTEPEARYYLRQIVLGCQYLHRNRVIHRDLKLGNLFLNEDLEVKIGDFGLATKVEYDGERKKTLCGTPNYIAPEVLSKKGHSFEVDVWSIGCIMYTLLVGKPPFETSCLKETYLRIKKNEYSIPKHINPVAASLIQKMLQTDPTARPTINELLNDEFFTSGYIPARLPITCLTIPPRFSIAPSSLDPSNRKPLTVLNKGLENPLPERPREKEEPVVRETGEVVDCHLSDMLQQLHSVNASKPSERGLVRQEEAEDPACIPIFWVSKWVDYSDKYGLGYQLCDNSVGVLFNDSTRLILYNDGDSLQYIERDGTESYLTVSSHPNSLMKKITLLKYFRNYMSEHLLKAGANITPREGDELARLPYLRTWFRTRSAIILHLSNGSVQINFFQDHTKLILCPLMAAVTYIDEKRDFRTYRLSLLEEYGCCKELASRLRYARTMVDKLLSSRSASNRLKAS
Sequence of CDK6/cyclin D3 (Q00534 whole entry): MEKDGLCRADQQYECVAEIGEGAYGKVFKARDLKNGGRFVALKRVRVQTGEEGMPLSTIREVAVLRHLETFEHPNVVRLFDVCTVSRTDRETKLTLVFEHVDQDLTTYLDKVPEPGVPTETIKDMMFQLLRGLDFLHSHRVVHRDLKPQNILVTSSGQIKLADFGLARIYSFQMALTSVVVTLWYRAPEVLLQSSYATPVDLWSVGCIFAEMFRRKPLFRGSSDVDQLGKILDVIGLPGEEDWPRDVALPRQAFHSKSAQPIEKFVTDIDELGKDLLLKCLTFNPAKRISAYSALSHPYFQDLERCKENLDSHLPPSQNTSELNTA
Sequence of CDK6/cyclin D3 (P30281 whole entry partner): as the sequence (P30281 whole entry partner) above

selectivity to CDK4 than CDK6 ([5]; CDK4 vs CDK6): 26 times
pIC50 ([5]; in vitro kinase assay): 9.11
relative % of inhibition, CDK4 ([5]; kinase panel, 100 nM range): ~100%
pIC50 ([7]; in vitro kinase assay): 7.69
relative % of inhibition, CDK6 ([7]; kinase panel, 100 nM range): ~100%
IC50 compared with palbociclib [17]: lower IC50in all tumor types tested
off-target cross-reactivity in kinase panel [19]: no or little cross-reactivity
animal health / weight ([20]; treated mice, 50 mg/kg i.p. daily): did not affected animal health
Structure (SMILES): C=CC(=O)Nc1ccc(C(=O)N2CCN(c3ccc(Nc4ncc5c(C)c(C(C)=O)c(=O)n(C6CCCC6)c5n4)nc3)CC2)cc1 [KP108, N-(4-(4-(6-((6-acetyl-8-cyclopentyl-5-methyl-7-oxo-7,8-dihydropyrido[2,3-d]pyrimidin-2-yl)amino}pyridin-3-yl)piperazine-1-carbonyl)phenyl)acrylamide]
elimination of ALDH+ CSCs [1]: significant superior efficacy; also recorded: nearly maximal efficacy
activity in cellulo [2]: great activity in cellulo
elimination of ALDH+ CSCs [3]: significant superior efficacy; also recorded: nearly maximal efficacy
activity in cellulo [4]: very active
pro-apoptotic effect [6]: significant pro-apoptotic effect
inhibition of PLK1 [8]: efficiently inhibit; also recorded: highlighting PLK1 as a potential KP108 target
effects on other PLK family members [9]: only targets PLK1
activity in cellulo [10]: great activity in cellulo
block of PLK1 autophosphorylation (Thr210) [11]: efficiently block phosphorylation
pro-apoptotic effect [12]: significant pro-apoptotic effect; also recorded: almost complete cell death
block of Rb phosphorylation (Ser780) [13]: efficiently block phosphorylation
effect on cell cycle progression [14]: efficiently induce G2 arrest; also recorded: dose-dependent increase in the G2 phase
activity in cellulo [15]: very active
reduction of tumorsphere formation [16]: superior efficacy in reducing tumorsphere formation
activity in cellulo [18]: great activity in cellulo
primary tumor development (tumor volume) ([20]; NSG mice, i.p. daily for two weeks, 50 mg/kg): great efficacy and sustained activity; also recorded: great efficacy in preventing primary tumor development
tumor growth once injections were stopped ([20]; after end of the two-week 50 mg/kg i.p. treatment): growth inhibitory effects sustained over time, even once injections were stopped
lung colonization / lung metastatic nodules [21]: great efficacy and sustained activity; also recorded: significantly prevented, to almost completely block lung colonization
effect on cell cycle progression [22]: induce G1 arrest
